Data from patent publication US10757941B2, “Microbiocidal oxadiazole derivatives” (SYNGENTA PARTICIPATIONS AG, priority 2016, dated 2020).

Experiments:
Uromyces viciae-fabael = test: Fungicidal activity against Uromyces viciae-fabae / field bean / leaf disc preventative (faba-bean rust); assay type: in vivo; details: foliar, 288 h, 100 ppm in the applied formulation, field bean leaf discs, preventative (inoculated two hours after application), assessed 12 days after application, compared to untreated, read-out: disease control
Protocol: Leaf disks or leaf segments of various plant species are cut from plants grown in a greenhouse. The cut leaf disks or segments are placed in multiwell plates (24-well format) onto water agar. The leaf disks are sprayed with a test solution before (preventative) or after (curative) inoculation. Compounds to be tested are prepared as DMSO solutions (max. 10 mg/ml) which are diluted to the appropriate concentration with 0.025% Tween20 just before spraying. The inoculated leaf disks or segments are incubated under defined conditions (temperature, relative humidity, light, etc.) according to the respective test system. A single evaluation of disease level is carried out 3 to 14 days after inoculation, depending on the pathosystem. Percent disease control relative to the untreated check leaf disks or segments is then calculated. Example 5: Fungicidal Activity Against Uromyces viciae-fabael Field Bean/Leaf Disc Preventative (Faba-Bean Rust) Field bean leaf discs are placed on water agar in multiwell plates (96-well format) and 10 μl of the formulated test compound diluted in acetone and a spreader pipetted onto the leaf disc. Two hours after application leaf discs are inoculated by spraying a spore suspension on the lower leaf surface. The leaf discs are incubated in a climate cabinet at 22° C. with 18 hour day and 70% relative humidity. The activity of a compound is assessed as percent disease control compared to untreated when an appropriate level of disease damage appears in untreated check leaf disks (12 days after application). The following compounds at 100 ppm in the applied formulation give at least 80% disease control in this test when compared to untreated control leaf discs under the same conditions, which show extensive disease development.

[1] = system: Puccinia recondita f. Sp. Tritici; test: Fungicidal activity against Puccinia recondita f. sp. tritici / wheat / leaf disc curative (brown rust); assay type: in vivo; details: foliar, 200 ppm in the applied formulation, wheat leaf segments cv. Kanzler, curative (applied 1 day after inoculation), assessed 6 to 8 days after application, compared to untreated, read-out: disease control
Protocol: Leaf disks or leaf segments of various plant species are cut from plants grown in a greenhouse. The cut leaf disks or segments are placed in multiwell plates (24-well format) onto water agar. The leaf disks are sprayed with a test solution before (preventative) or after (curative) inoculation. Compounds to be tested are prepared as DMSO solutions (max. 10 mg/ml) which are diluted to the appropriate concentration with 0.025% Tween20 just before spraying. The inoculated leaf disks or segments are incubated under defined conditions (temperature, relative humidity, light, etc.) according to the respective test system. A single evaluation of disease level is carried out 3 to 14 days after inoculation, depending on the pathosystem. Percent disease control relative to the untreated check leaf disks or segments is then calculated. Example 2: Fungicidal Activity Against Puccinia recondita f. Sp. Tritici/Wheat/Leaf Disc Curative (Brown Rust) Wheat leaf segments cv. Kanzler are placed on agar in multiwell plates (24-well format). The leaf segments are then inoculated with a spore suspension of the fungus. Plates were stored in darkness at 19° C. and 75% relative humidity. The formulated test compound diluted in water was applied 1 day after inoculation. The leaf segments were incubated at 19° C. and 75% relative humidity under a light regime of 12 hours light/12 hours darkness in a climate cabinet and the activity of a compound was assessed as percent disease control compared to untreated when an appropriate level of disease damage appears in untreated check leaf segments (6 to 8 days after application). The following compounds at 200 ppm in the applied formulation give at least 80% disease control in this test when compared to untreated control leaf disks under the same conditions, which show extensive disease development.

[2] = system: Puccinia recondita f. Sp. Tritici; test: Fungicidal activity against Puccinia recondita f. sp. tritici / wheat / leaf disc preventative (brown rust); assay type: in vivo; details: foliar, 200 ppm in the applied formulation, wheat leaf segments cv. Kanzler, preventative (inoculated 1 day after application), assessed 7 to 9 days after application, compared to untreated, read-out: disease control
Protocol: Leaf disks or leaf segments of various plant species are cut from plants grown in a greenhouse. The cut leaf disks or segments are placed in multiwell plates (24-well format) onto water agar. The leaf disks are sprayed with a test solution before (preventative) or after (curative) inoculation. Compounds to be tested are prepared as DMSO solutions (max. 10 mg/ml) which are diluted to the appropriate concentration with 0.025% Tween20 just before spraying. The inoculated leaf disks or segments are incubated under defined conditions (temperature, relative humidity, light, etc.) according to the respective test system. A single evaluation of disease level is carried out 3 to 14 days after inoculation, depending on the pathosystem. Percent disease control relative to the untreated check leaf disks or segments is then calculated. Example 1: Fungicidal Activity Against Puccinia recondita f. Sp. Tritici/Wheat/Leaf Disc Preventative (Brown Rust) Wheat leaf segments cv. Kanzler were placed on agar in multiwell plates (24-well format) and sprayed with the formulated test compound diluted in water. The leaf disks were inoculated with a spore suspension of the fungus 1 day after application. The inoculated leaf segments were incubated at 19° C. and 75% relative humidity (rh) under a light regime of 12 hours light/12 hours darkness in a climate cabinet and the activity of a compound was assessed as percent disease control compared to untreated when an appropriate level of disease damage appears in untreated check leaf segments (7 to 9 days after application). The following compounds at 200 ppm in the applied formulation give at least 80% disease control in this test when compared to untreated control leaf disks under the same conditions, which show extensive disease development.

[3] = system: Glomerella lagenarium (Colletotrichum lagenarium); test: Fungicidal activity against Glomerella lagenarium (Colletotrichum lagenarium) liquid culture / cucumber / preventative (anthracnose); assay type: cell-based; details: Colletotrichum orbiculare; 20 ppm in the applied formulation; liquid culture in PDB, 24° C.; inhibition of growth measured photometrically 3 to 4 days after application; compared to untreated; read-out: disease control
Protocol: Mycelia fragments or conidia suspensions of a fungus prepared either freshly from liquid cultures of the fungus or from cryogenic storage, are directly mixed into nutrient broth. DMSO solutions of the test compound (max. 10 mg/ml) are diluted with 0.025% Tween20 by a factor of 50 and 10 μl of this solution is pipetted into a microtiter plate (96-well format). The nutrient broth containing the fungal spores/mycelia fragments is then added to give an end concentration of the tested compound. The test plates are incubated in the dark at 24° C. and 96% relative humidity. The inhibition of fungal growth is determined photometrically after 2 to 7 days, depending on the pathosystem, and percent antifungal activity relative to the untreated check is calculated. Example 4: Fungicidal Activity Against Glomerella lagenarium (Colletotrichum lagenarium) Liquid Culture/Cucumber/Preventative (Anthracnose) Conidia of the fungus from cryogenic storage are directly mixed into nutrient broth (PDB—potato dextrose broth). After placing a (DMSO) solution of test compound into a microtiter plate (96-well format), the nutrient broth containing the fungal spores is added. The test plates are incubated at 24° C. and the inhibition of growth is measured photometrically 3 to 4 days after application. The following compounds at 20 ppm in the applied formulation give at least 80% disease control in this test when compared to untreated control under the same conditions, which show extensive disease development.

Phakopsora pachyrhizi = test: Fungicidal activity against Phakopsora pachyrhizi / soybean / leaf disc preventative (Asian soybean rust); assay type: in vivo; details: foliar, 200 ppm in the applied formulation, soybean leaf disks, preventative (inoculated one day after application), assessed 12 to 14 days after application, compared to untreated, read-out: disease control
Protocol: Leaf disks or leaf segments of various plant species are cut from plants grown in a greenhouse. The cut leaf disks or segments are placed in multiwell plates (24-well format) onto water agar. The leaf disks are sprayed with a test solution before (preventative) or after (curative) inoculation. Compounds to be tested are prepared as DMSO solutions (max. 10 mg/ml) which are diluted to the appropriate concentration with 0.025% Tween20 just before spraying. The inoculated leaf disks or segments are incubated under defined conditions (temperature, relative humidity, light, etc.) according to the respective test system. A single evaluation of disease level is carried out 3 to 14 days after inoculation, depending on the pathosystem. Percent disease control relative to the untreated check leaf disks or segments is then calculated. Example 3: Fungicidal Activity Against Phakopsora pachyrhizi/Soybean/Leaf Disc Preventative (Asian Soybean Rust) Soybean leaf disks are placed on water agar in multiwell plates (24-well format) and sprayed with the formulated test compound diluted in water. One day after application leaf discs are inoculated by spraying a spore suspension on the lower leaf surface. After an incubation period in a climate cabinet of 24-36 hours in darkness at 20° C. and 75% rh leaf disc are kept at 20° C. with 12 h light/day and 75% rh. The activity of a compound is assessed as percent disease control compared to untreated when an appropriate level of disease damage appears in untreated check leaf disks (12 to 14 days after application). The following compounds at 200 ppm in the applied formulation give at least 80% disease control in this test when compared to untreated control leaf disks under the same conditions, which show extensive disease development.

CN(C(=O)c1ccc(-c2noc(C(F)(F)F)n2)c(F)c1)C1CCN(C(=O)OC(C)(C)C)C1 (stereo not drawn) [Compound 1.2, tert-butyl 3-[[3-fluoro-4-[5-(trifluoromethyl)-1,2,4-oxadiazol-3-yl]benzoyl]-methyl-amino]pyrrolidine-1-carboxylate]
≥ 80%: pest or weed control at 100 ppm (Uromyces viciae-fabael) | pest or weed control at 200 ppm [1] | pest or weed control at 200 ppm [2] | inhibition of growth at 20 ppm [3]

COc1ccc2[nH]cc(CCNC(=O)c3ccc(-c4noc(C(F)(F)F)n4)c(F)c3)c2c1 [Compound 1.4, 3-fluoro-N-[2-(5-methoxy-1H-indol-3-yl)ethyl]-4-[5-(trifluoromethyl)-1,2,4-oxadiazol-3-yl]benzamide]
≥ 80%: pest or weed control at 200 ppm (Phakopsora pachyrhizi) | pest or weed control at 100 ppm (Uromyces viciae-fabael) | pest or weed control at 200 ppm [2] | inhibition of growth at 20 ppm [3]

CN(C(=O)c1ccc(-c2noc(C(F)(F)F)n2)c(F)c1)c1ccccn1 [Compound 1.5, 3-fluoro-N-methyl-N-(2-pyridyl)-4-[5-(trifluoromethyl)-1,2,4-oxadiazol-3-yl]benzamide]
≥ 80%: pest or weed control at 200 ppm [1] | pest or weed control at 200 ppm [2] | inhibition of growth at 20 ppm [3]

CSCCCNC(=O)c1ccc(-c2noc(C(F)(F)F)n2)c(F)c1 [Compound 1.6, 3-fluoro-N-(3-methylsulfanyl-propyl)-4-[5-(trifluoromethyl)-1,2,4-oxadiazol-3-yl]benzamide]
≥ 80%: pest or weed control at 100 ppm (Uromyces viciae-fabael) | pest or weed control at 200 ppm [1] | pest or weed control at 200 ppm [2]

C#CC1(NC(=O)c2ccc(-c3noc(C(F)(F)F)n3)c(F)c2)CCCCC1 [Compound 1.8, N-(1-ethynylcyclohexyl)-3-fluoro-4-[5-(trifluoromethyl)-1,2,4-oxadiazol-3-yl]benzamide]
≥ 80%: pest or weed control at 200 ppm (Phakopsora pachyrhizi) | pest or weed control at 100 ppm (Uromyces viciae-fabael) | pest or weed control at 200 ppm [2] | inhibition of growth at 20 ppm [3]

O=C(NCCSCc1ccc(Cl)nc1)c1ccc(-c2noc(C(F)(F)F)n2)c(F)c1 [Compound 1.10, N-[2-[(6-chloro-3-pyridyl)methyl-sulfanyl]ethyl]-3-fluoro-4-[5-(trifluoromethyl)-1,2,4-oxadiazol-3-yl]benzamide]
≥ 80%: pest or weed control at 200 ppm (Phakopsora pachyrhizi) | pest or weed control at 100 ppm (Uromyces viciae-fabael) | pest or weed control at 200 ppm [2] | inhibition of growth at 20 ppm [3]

COC(=O)C1(NC(=O)c2ccc(-c3noc(C(F)(F)F)n3)c(F)c2)CCN(OC)CC1 [Compound 1.13, methyl 4-[[3-fluoro-4-[5-(trifluoromethyl)-1,2,4-oxadiazol-3-yl]benzoyl]amino]-1-methoxy-piperidine-4-carboxylate]
≥ 80%: pest or weed control at 100 ppm (Uromyces viciae-fabael) | pest or weed control at 200 ppm [1] | pest or weed control at 200 ppm [2]

CC(C)(CS(C)(=O)=O)NC(=O)c1ccc(-c2noc(C(F)(F)F)n2)c(F)c1 [Compound 1.22, N-(1,1-dimethyl-2-methylsulfonyl-ethyl)-3-fluoro-4-[5-(trifluoromethyl)-1,2,4-oxadiazol-3-yl]benzamide]
≥ 80%: pest or weed control at 100 ppm (Uromyces viciae-fabael) | pest or weed control at 200 ppm [1] | pest or weed control at 200 ppm [2]

O=C(NCC1CC(F)(F)C1(F)F)c1ccc(-c2noc(C(F)(F)F)n2)c(F)c1 (stereo not drawn) [Compound 1.23, 3-fluoro-N-[(2,2,3,3-tetrafluoro-cyclobutyl)methyl]-4-[5-(trifluoromethyl)-1,2,4-oxadiazol-3-yl]benzamide]
≥ 80%: pest or weed control at 200 ppm (Phakopsora pachyrhizi) | pest or weed control at 100 ppm (Uromyces viciae-fabael) | pest or weed control at 200 ppm [2] | inhibition of growth at 20 ppm [3]

CC(C)CC(C)NC(=O)c1ccc(-c2noc(C(F)(F)F)n2)c(F)c1 (stereo not drawn) [Compound 1.38, N-(1,3-dimethylbutyl)-3-fluoro-4-[5-(trifluoromethyl)-1,2,4-oxadiazol-3-yl]benzamide]
≥ 80%: pest or weed control at 200 ppm (Phakopsora pachyrhizi) | pest or weed control at 100 ppm (Uromyces viciae-fabael) | pest or weed control at 200 ppm [2] | inhibition of growth at 20 ppm [3]

O=C(Nc1nccnn1)c1ccc(-c2noc(C(F)(F)F)n2)c(F)c1 [Compound 1.42, 3-fluoro-N-(1,2,4-triazin-3-yl)-4-[5-(trifluoromethyl)-1,2,4-oxadiazol-3-yl]benzamide]
≥ 80%: pest or weed control at 200 ppm [1] | pest or weed control at 200 ppm [2] | inhibition of growth at 20 ppm [3]
